Data taken from patent US8546608B2, “Proteasome inhibitors and methods of using the same” (Cephalon, Inc., priority 2003, dated 2013).

Columns and labels:
[1] = target: T1, proteasome in Molt-4 cells (human leukemia) (Homo sapiens, UniProt P20618+P28074); assay type: cell-based; settings: assay of Example E, inhibition of MOLT4; read-out: MOLT4 (EC50)
T1 sequence (P28074 60-263): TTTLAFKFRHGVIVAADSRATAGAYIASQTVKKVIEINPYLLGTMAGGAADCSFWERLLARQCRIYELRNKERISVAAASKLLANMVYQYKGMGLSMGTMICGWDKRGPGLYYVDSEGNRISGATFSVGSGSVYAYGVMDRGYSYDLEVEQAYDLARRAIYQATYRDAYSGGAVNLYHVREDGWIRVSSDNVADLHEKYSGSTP
T1 sequence (P20618 29-241): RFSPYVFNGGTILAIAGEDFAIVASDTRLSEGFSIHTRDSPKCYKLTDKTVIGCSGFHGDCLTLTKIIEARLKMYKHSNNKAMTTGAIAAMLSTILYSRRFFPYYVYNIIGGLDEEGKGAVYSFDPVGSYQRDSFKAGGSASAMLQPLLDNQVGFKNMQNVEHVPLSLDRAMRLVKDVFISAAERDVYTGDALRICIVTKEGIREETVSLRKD
Method in brief: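 Intact Molt-4 cells (6×10^6 cells/mL) in HEPES-buffered saline were preincubated with inhibitor 15 min at 37 °C, then given cell-permeable MeOSuc-FLF-AFC at 25 μM final.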

[2] = target: T2, 20S Human Erythrocyte Proteasome (HEP) (Homo sapiens, UniProt P20618+P28074); assay: Chymotrypsin-like activity of 20S Human Erythrocyte Proteasome (HEP), IC50 determination; assay type: biochemical; settings: assay of Example C, inhibition of HEP
T2 construct: 20S Human Erythrocyte Proteasome (HEP), purchased from Immatics Biotechnologies Inc; purchased Immatics Biotechnologies Inc., Tübingen, Germany; host or cells: human erythrocytes (natural source)
Method in brief: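 20S proteasome at 0.2 μg/mL (about 0.6 nM catalytic sites) in 20 mM Tris with 0.04% SDS, preincubated 15 min at 37° C with inhibitor before Suc-LLVY-AMC (100 μM final). AMC fluorescence read in the linear range; triplicates, IC50 from concentration series.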

EC50 [1]	melting point	IC50 [2]	Structure (SMILES)
200 to 2000 nM	178 to 180 °C	< 10 nM	CCCCc1ccc(C(=O)N[C@@H](CNC(=O)c2ccc(-c3ccccc3)cc2)C(=O)N[C@@H](CC(C)C)B(O)O)cc1 [E.5.33, Boronic acid, [(1R)-1-[[(2S)-3-(4-phenybenzamide]-2-[(4-butylbenzoyl)amino]-1-oxopropyl]amino]-3-methylbutyl]]
< 200 nM	158 to 160 °C	< 10 nM	CC(C)C[C@H](NC(=O)[C@H](CNC(=O)c1ccc(-c2ccccc2)cc1)NC(=O)c1ccc(Oc2ccccc2)cc1)B(O)O [E.5.34, Boronic acid, [(1R)-1-[[(2S)-3-(4-phenylbenzamide]-2-[(4-phenoxybenzoyl)amino]-1-oxopropyl]amino]-3-methylbutyl]]
< 200 nM	138 to 140 °C	< 10 nM	CCCCc1ccc(C(=O)N[C@@H](CNC(=O)C#Cc2ccccc2)C(=O)N[C@@H](CC(C)C)B(O)O)cc1 [E.5.35]
200 to 2000 nM	175 to 177 °C	< 100 nM	CCCCc1ccc(C(=O)N[C@@H](CNC(=O)NS(=O)(=O)c2ccc(C)cc2)C(=O)N[C@@H](CC(C)C)B(O)O)cc1 [E.5.36]
< 200 nM	155 to 158 °C	< 10 nM	CCCCc1ccc(C(=O)N[C@@H](CNC(=O)c2csc(-c3ccncc3)n2)C(=O)N[C@@H](CC(C)C)B(O)O)cc1 [E.5.37, Boronic acid, [(1R)-1-[[(2S)-3-(4-(2-(4-pyridyl)-1,3-thiazole-4-carbonylamino)]-2-[(4-butylbenzoyl)amino]-1-oxopropyl]amino]-3-methylbutyl]]
